Experimental data as given in ChEMBL document CHEMBL4477199, “Design and synthesis of novel bicalutamide and enzalutamide derivatives as antiproliferative agents for the treatment of prostate cancer” (Eur J Med Chem, 2016).

What was measured:
CWR22R = test: Antiproliferative activity against human 22Rv1 cells after 96 hrs by propidium iodide staining based fluorescence 2D monolayer assay; assay type: functional, cell-based; conditions: 22Rv1, 96 h
DU-145 = test: Antiproliferative activity against human DU145 cells after 96 hrs by propidium iodide staining based fluorescence 2D monolayer assay; assay type: functional, cell-based; conditions: DU-145, 96 h
VCaP = test: Antiproliferative activity against human VCaP cells after 96 hrs by propidium iodide staining based fluorescence 2D monolayer assay; assay type: functional, cell-based
[1] = 96 h
Description: Solubility in RPMI1640 culture medium at <30 uM incubated for 4 days by microscopic analysis

[2] = 33000 µM
Description: Solubility in 100% DMSO at 33 mM at -20 degC

LNCaP = test: Antiproliferative activity against human LNCAP cells after 96 hrs by propidium iodide staining based fluorescence 2D monolayer assay; assay type: functional, cell-based
[3] = target: T1, Androgen receptor (Rattus norvegicus) (UniProt P15207); test: (§1) Antagonist activity at rat androgen receptor fused with DNA-binding domain of GAL4 expressed in AR-UAS-bla GripTite 293 cells assessed as inhibition of R1881-induced receptor activation preincubated for 30 mins followed by R1881 addition measured after 16 to 24 hrs by betalactamase reporter gene assay; assay type: cell-based
T1 sequence (whole entry): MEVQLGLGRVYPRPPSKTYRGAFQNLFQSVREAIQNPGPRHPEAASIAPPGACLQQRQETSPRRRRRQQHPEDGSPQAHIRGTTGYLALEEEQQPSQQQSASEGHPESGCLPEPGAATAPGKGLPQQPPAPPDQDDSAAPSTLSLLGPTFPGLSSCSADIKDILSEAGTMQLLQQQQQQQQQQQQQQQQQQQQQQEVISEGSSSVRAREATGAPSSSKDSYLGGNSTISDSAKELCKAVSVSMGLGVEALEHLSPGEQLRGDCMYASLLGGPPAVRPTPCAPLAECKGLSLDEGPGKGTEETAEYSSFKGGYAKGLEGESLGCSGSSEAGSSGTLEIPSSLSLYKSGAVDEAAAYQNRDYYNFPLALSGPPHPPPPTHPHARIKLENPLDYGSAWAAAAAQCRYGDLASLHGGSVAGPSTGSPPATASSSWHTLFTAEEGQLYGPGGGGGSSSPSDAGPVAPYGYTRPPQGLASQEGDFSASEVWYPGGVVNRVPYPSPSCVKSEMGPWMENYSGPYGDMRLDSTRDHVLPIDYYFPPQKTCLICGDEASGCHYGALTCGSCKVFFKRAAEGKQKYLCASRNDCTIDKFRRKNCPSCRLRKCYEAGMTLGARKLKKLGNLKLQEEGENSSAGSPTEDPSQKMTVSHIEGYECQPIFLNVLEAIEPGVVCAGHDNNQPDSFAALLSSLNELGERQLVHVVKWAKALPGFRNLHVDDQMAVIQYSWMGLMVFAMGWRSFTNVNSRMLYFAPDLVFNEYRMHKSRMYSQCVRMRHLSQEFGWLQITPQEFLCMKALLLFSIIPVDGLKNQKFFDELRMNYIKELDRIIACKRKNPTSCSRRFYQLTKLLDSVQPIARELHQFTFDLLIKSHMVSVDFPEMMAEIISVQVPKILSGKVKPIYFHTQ

Androgen receptor = target: T2, Androgen receptor (Rattus norvegicus, UniProt P15207); test: as §1; assay type: cell-based
T2 sequence (P15207 whole entry): T1 sequence (whole entry)

Row | Structure (SMILES) | IC50 (CWR22R) | IC50 (DU-145) | IC50 (VCaP) | solubility [1] | solubility [2] | IC50 (LNCaP) | inhibition [3] | IC50 (Androgen receptor)
1 | CC(O)(COc1ccccc1OC(F)(F)F)C(=O)Nc1ccc([N+](=O)[O-])c(C(F)(F)F)c1 (stereo not given) | 6.6 µM | 9.88 µM | 9.61 µM | Soluble | Soluble | 7.04 µM | Dose-dependent effect | 0.198 µM
2 | CC1(C)C(=O)N(c2ccc(C(F)(F)F)cc2)C(=O)N1c1ccc(C#N)cc1C(F)(F)F | 100 µM | 100 µM | 100 µM | Soluble | Soluble | 8.36 µM | Dose-dependent effect | 0.402 µM
3 | CC(O)(COc1ccccc1C(F)(F)F)C(=O)Nc1ccc([N+](=O)[O-])c(C(F)(F)F)c1 (stereo not given) | 20.2 µM | 35.2 µM | 27.2 µM | Soluble | Soluble | 22.6 µM | Dose-dependent effect | 0.183 µM
4 | CC1(C)C(=O)N(c2ccc(C(F)(F)F)cc2)C(=O)N1c1ccc([N+](=O)[O-])cc1C(F)(F)F | 16.4 µM | 100 µM | 100 µM | Soluble | Soluble | 3.73 µM | Dose-dependent effect | 0.265 µM
5 | CC(O)(COc1ccc(C#N)cc1C(F)(F)F)C(=O)Nc1ccc(C#N)cc1C(F)(F)F (stereo not given) | 18.4 µM | 27.5 µM | 17.7 µM | Soluble | Soluble | 9.39 µM | Dose-dependent effect | 0.736 µM
6 | CC(O)(CSc1ccccc1C(F)(F)F)C(=O)Nc1ccc([N+](=O)[O-])cc1C(F)(F)F (stereo not given) | 12 µM | 17.5 µM | 12.8 µM | Soluble | Soluble | 11.7 µM | Dose-dependent effect | 0.332 µM
7 | CC(O)(COc1ccc(C#N)c(F)c1)C(=O)Nc1ccc(C#N)cc1C(F)(F)F (stereo not given) | 45.3 µM | 68.8 µM | 77.2 µM | Soluble | Soluble | 78.3 µM |  | 
8 | CC(O)(COc1ccc(C(F)(F)F)cc1)C(=O)Nc1ccc([N+](=O)[O-])cc1C(F)(F)F (stereo not given) | 18.9 µM | 22.1 µM | 18.6 µM | Soluble | Soluble | 13.6 µM |  | 
9 | CC1(C)C(=O)N(c2ccc(C(F)(F)F)cc2)C(=O)N1c1ccc(C#N)c(C(F)(F)F)c1 | 63.6 µM | 100 µM | 30.1 µM | Soluble | Soluble | 9.37 µM |  | 
10 | CC(O)(COc1cccc(C(F)(F)F)c1)C(=O)Nc1ccc(C#N)cc1C(F)(F)F (stereo not given) | 18.7 µM | 32.1 µM | 21.6 µM | Soluble | Soluble | 15.2 µM |  | 
11 | CC(O)(COc1ccccc1OC(F)(F)F)C(=O)Nc1ccc(C#N)cc1C(F)(F)F (stereo not given) | 16.7 µM | 27.1 µM | 43.9 µM | Soluble | Soluble | 33.8 µM |  | 
12 | CC(O)(COc1cccc(OC(F)(F)F)c1)C(=O)Nc1ccc(C(F)(F)F)cc1 (stereo not given) | 15.4 µM | 29.4 µM | 4.28 µM | Soluble | Soluble | 2.16 µM |  | 
13 | CC(O)(COc1ccc(C(F)(F)F)cc1)C(=O)Nc1ccc(C#N)cc1C(F)(F)F (stereo not given) | 29.9 µM | 32.4 µM | 23 µM | Soluble | Soluble | 28.6 µM |  | 
14 | CC(O)(COc1ccc(C#N)cc1)C(=O)Nc1ccc(C#N)cc1C(F)(F)F (stereo not given) | 42.9 µM | 100 µM | 61.4 µM | Soluble | Soluble | 34.7 µM |  | 
15 | CC(O)(COc1ccc(F)cc1F)C(=O)Nc1ccc(C#N)cc1C(F)(F)F (stereo not given) | 60.9 µM | 99.5 µM | 50.6 µM | Soluble | Soluble | 30.6 µM |  | 
16 | CC1(C)C(=O)N(c2cccc(C(F)(F)F)c2)C(=O)N1c1ccccc1C(F)(F)F | 100 µM | 100 µM | 100 µM | Soluble | Soluble | 28.3 µM |  | 
17 | CC(O)(CSc1ccc(F)cc1)C(=O)Nc1ccc(C#N)cc1C(F)(F)F (stereo not given) | 30.1 µM | 43.3 µM | 45.5 µM | Soluble | Soluble | 26.4 µM |  | 
18 | CC1(C)C(=O)N(c2cccc(C(F)(F)F)c2)C(=O)N1c1ccc([N+](=O)[O-])cc1C(F)(F)F | 5.01 µM | 7.88 µM | 13.3 µM | Soluble | Soluble | 4.07 µM | Dose-dependent effect | 0.111 µM
19 | CC(O)(CS(=O)(=O)c1ccccc1C(F)(F)F)C(=O)Nc1ccc([N+](=O)[O-])cc1C(F)(F)F (stereo not given) | 28.3 µM | 46.1 µM | 38.6 µM | Soluble | Soluble | 20.5 µM |  | 
20 | CC(O)(COc1ccc(OC(F)(F)F)cc1)C(=O)Nc1ccc([N+](=O)[O-])c(C(F)(F)F)c1 (stereo not given) | 7.53 µM | 10.4 µM | 19.6 µM | Soluble | Soluble | 17.7 µM | Dose-dependent effect | 0.625 µM
21 | CC(O)(CS(=O)(=O)c1cccc(C(F)(F)F)c1)C(=O)Nc1ccc(C#N)c(C(F)(F)F)c1 (stereo not given) | 21 µM | 39.1 µM | 39.7 µM | Soluble | Soluble | 14.9 µM |  | 
22 | C[C@](O)(CSc1ccc(OC(F)(F)F)cc1)C(=O)Nc1ccc(C#N)c(C(F)(F)F)c1 | 28.8 µM | 29.8 µM | 17.4 µM | Soluble | Soluble | 19.8 µM |  | 
23 | CC1(C)C(=O)N(c2cccc(C(F)(F)F)c2)C(=O)N1c1cccc(C(F)(F)F)c1 | 60.7 µM | 100 µM | 75.7 µM | Soluble | Soluble | 5.61 µM | Dose-dependent effect | 0.123 µM
24 | CC(O)(COc1cccc(C(F)(F)F)c1)C(=O)Nc1ccc(C#N)c(C(F)(F)F)c1 (stereo not given) | 5.89 µM | 10.8 µM | 9.04 µM | Soluble | Soluble | 8.31 µM |  | 
25 | CC(O)(COc1cccc(OC(F)(F)F)c1)C(=O)Nc1ccc([N+](=O)[O-])c(C(F)(F)F)c1 (stereo not given) | 9.31 µM | 13.1 µM | 9.6 µM | Soluble | Soluble | 9.95 µM | Dose-dependent effect | 0.407 µM
26 | C[C@](O)(CS(=O)(=O)c1ccccc1C(F)(F)F)C(=O)Nc1ccc(C#N)c(C(F)(F)F)c1 | 34.8 µM | 44.3 µM | 37.3 µM | Soluble | Soluble | 32.2 µM |  | 
27 | CC(O)(CSc1ccc(OC(F)(F)F)cc1)C(=O)Nc1ccc(C#N)c(C(F)(F)F)c1 (stereo not given) | 46.6 µM | 64 µM | 40.3 µM | Soluble | Soluble | 42.8 µM |  | 
28 | C[C@](O)(CS(=O)(=O)c1cccc(C(F)(F)F)c1)C(=O)Nc1ccc(C#N)c(C(F)(F)F)c1 | 25.7 µM | 45.2 µM | 39.9 µM | Soluble | Soluble | 13.2 µM |  | 
29 | CC(O)(COc1cccc(C(F)(F)F)c1)C(=O)Nc1ccc([N+](=O)[O-])cc1C(F)(F)F (stereo not given) | 15.2 µM | 18.1 µM | 19.3 µM | Soluble | Soluble | 12.9 µM |  | 
30 | CC(O)(CS(=O)(=O)c1cccc(C(F)(F)F)c1)C(=O)Nc1ccc([N+](=O)[O-])cc1C(F)(F)F (stereo not given) | 18.1 µM | 32 µM | 38.7 µM | Soluble | Soluble | 16.8 µM |  | 
